{"source": "patent US9751919B2", "about": "“Antimicrobial compositions comprising a hyaluronic acid binding peptide and a β-lactam antibiotic” (priority 2012, dated 2017)", "key": {"E. cloacae": {"test_system": "E. cloacae", "test": "Checkerboard assay (FIC index)", "type": "cell-based, Enterobacter cloacae", "details": "antibiotic combined with PEP35", "method": "The checkerboard assays were carried out as described by Eliopoulos and Moellering (Chapter 9) in Antibiotic in Laboratory Medicine, Lorian Ed. 1996 as well as Bonapace et al. Diagnostic Microbiology and Infectious Diseases 2002; 44:363-366 and Bonapace et al. Diagnostic Microbiology and Infectious Diseases 2000; 38:43-50. In brief, checkerboard assays were performed in 96 well microtitre trays using an 8-by-8 well configuration. […] 96-well custom designed microtitre plates contained 100 ul/well of cation adjusted Mueller-Hinton broth (eg. for Enterobacteriaceae) with or without lysed horse blood (2-5% V/V) [eg. for S. pneumoniae] and were inoculated to achieve a final concentration of approximately 5×10^5 CFU/ml and incubated in ambient air for 24 hours prior to reading. Colony counts were performed periodically to confirm inocula. Quality control was performed every two weeks using a variety of ATCC QC organisms including; S. pneumoniae 49619, S. aureus 29213, E. faecalis 29212, E. coli 25922 and P. aeruginosa 27853. For all antimicrobials as well as PEP35, CLSI criteria was used.\nThe fractional inhibitory concentration index (FIC index) was used to interpret synergy, antagonism or additivity/indifference. FIC index=FIC of drug A+FIC of drug B where:\nThe FIC of drug A and drug B is calculated as follows, FIC drug A=MIC of drug A in combination/MIC of drug A alone and FIC of drug B=MIC of drug B in combination/MIC of drug B alone. Synergy is defined as FIC index ≦0.5, additivity/indifference FIC >0.5-4 and antagonism FIC index >4.\nAntimicrobials used included PEP35, cefazolin, ceftriaxone, vancomycin, linezolid, tigecycline and daptomycin versus Gram-positive cocci and PEP35, gentamicin, levofloxacin, piperacillin/tazobactam, meropenem and colistin (Polymyxin E) versus Gram-negative bacilli. These agents were obtained as laboratory grade powders from their respective manufacturers. Stock solutions were prepared and dilutions made as described by the Clinical Laboratory Standards Institute (2005 CLSI).\nOrganisms included Gram-positive cocci (2 strains of each): Methicillin-susceptible Staphylococcus aureus (MSSA), community-associated (CA) and healthcare-associated (HA) methicillin-resistant Staphylococcus aureus (MRSA), vancomycin-intermediate Staphylococcus aureus (VISA), vancomycin-resistant Staphylococcus aureus (VRSA), methicillin-resistant Staphylococcus epidermidis (MRSE), Streptococcus pyogenes, Streptococcus agalactiae, Streptococcus pneumoniae, Enterococcus faecalis, Enterococcus faecium and vancomycin-resistant enterococcus (VRE). Gram-negative bacilli tested (2 strains of each) included: E. coli, Pseudomonas aeruginosa, Klebsiella pneumoniae, K. oxytoca, Enterobacter cloacae, P. mirabilis and Stenotrophomonas maltophilia. MIC testing, following two subcultures from frozen stock were determined by the CLSI 2005 approved broth microdilution method."}, "VRSA": {"test_system": "VRSA", "test": "MIC (CLSI broth dilution), agent alone", "type": "cell-based, Staphylococcus aureus", "design": "unit not given beside the values"}, "HA-MRSA": {"test_system": "HA-MRSA", "test": "MIC (CLSI broth dilution), agent alone", "type": "cell-based, Staphylococcus aureus", "details": "agent alone", "outline": "(§1)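 S. aureus isolates were tested by CLSI 2005 broth macrodilution in doubling dilutions of cation-adjusted Mueller-Hinton broth. Inoculum was about 5×10^5 CFU/ml, with 24 h incubation in ambient air. MIC was the lowest concentration inhibiting visible growth, with an MSSA and ATCC QC strains as controls.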"}, "CA-MRSA": {"test_system": "CA-MRSA", "test": "MIC (CLSI broth dilution), agent alone", "type": "cell-based, Staphylococcus aureus", "details": "agent alone", "outline": "as §1"}, "VISA": {"test_system": "VISA", "test": "MIC (CLSI broth dilution), agent alone", "type": "cell-based, Staphylococcus aureus", "design": "unit: µg/mL"}, "E. coli": {"test_system": "E. coli", "test": "MIC (CLSI broth dilution), agent alone", "type": "cell-based, Escherichia coli", "details": "agent alone", "outline": "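E. coli strain 69717 was tested by CLSI 2005 broth macrodilution in cation-adjusted Mueller-Hinton broth with doubling dilutions. The inoculum was about 5×10^5 CFU/ml, incubated 24 h in ambient air. MIC is the lowest concentration preventing visible growth.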"}, "MSSA": {"test_system": "MSSA", "test": "MIC (CLSI broth dilution), agent alone", "type": "cell-based, Staphylococcus aureus", "details": "MSSA 79333; agent alone", "outline": "as §1"}, "[1]": {"details": "HA-MRSA 70798 (USA100/800), in µg/mL"}}, "note": "Several values for one entry are separate records, joined by “and”; a condition that tells them apart may be missing. Equal entries are not always repeated."}
{"compound": "C[C@@H](O)[C@H]1C(=O)N2C(C(=O)O)=C(S[C@@H]3CN[C@H](C(=O)N(C)C)C3)[C@H](C)[C@H]12", "note": "[Meropenem]", "values": [{"measurement": "Avg ΣFIC (range)", "setting": "E. cloacae; E. cloacae 80194", "value": "1.32 (1.03-2.12)"}, {"measurement": "Avg ΣFIC (range)", "setting": "E. cloacae; E. cloacae 83128", "value": "1.05 (0.75-1.25)"}, {"measurement": "MIC", "setting": "VRSA; VRSA 105, in µg/mL", "value": "32 and 16"}, {"measurement": "MIC", "setting": "VRSA; VRSA 106", "value": "16 and 16/16"}, {"measurement": "MIC", "setting": "HA-MRSA; [1]", "value": 64}, {"measurement": "MIC", "setting": "HA-MRSA; HA-MRSA 77098 (USA100/800)", "value": "64/64"}, {"measurement": "MIC", "setting": "CA-MRSA; CA-MRSA 70857 (USA400)", "value": "2 and 4/4"}, {"measurement": "MIC", "setting": "VISA; VISA 92, in µg/mL", "value": 16}, {"measurement": "MIC", "setting": "VISA; VISA 95, in µg/mL", "value": 16}, {"measurement": "MIC", "setting": "VISA; VISA 96", "value": "8 and 8/8"}, {"measurement": "MIC", "setting": "E. coli; E. coli 69716, in µg/mL", "value": 0.03}, {"measurement": "MIC", "setting": "E. coli; E. coli 70752, in µg/mL", "value": 0.03}]}
{"compound": "piperacillin/tazobactam", "values": [{"measurement": "Avg ΣFIC (range)", "setting": "E. cloacae; E. cloacae 80194", "value": "0.79 (0.5-1.06)"}, {"measurement": "Avg ΣFIC (range)", "setting": "E. cloacae; E. cloacae 83128", "value": "0.71 (0.37-1.06)"}, {"measurement": "MIC", "setting": "VRSA; VRSA 105, in µg/mL", "value": 64}, {"measurement": "MIC", "setting": "VRSA; VRSA 106, in µg/mL", "value": 64}, {"measurement": "MIC", "setting": "HA-MRSA; [1]", "value": 4}, {"measurement": "MIC", "setting": "HA-MRSA; HA-MRSA 77090 (USA100/800), in µg/mL", "value": 16}, {"measurement": "MIC", "setting": "CA-MRSA; CA-MRSA 69615 (USA400), in µg/mL", "value": 32}, {"measurement": "MIC", "setting": "CA-MRSA; CA-MRSA 70857 (USA400), in µg/mL", "value": 32}, {"measurement": "MIC", "setting": "MSSA", "value": "≦1"}, {"measurement": "MIC", "setting": "VISA; VISA 92, in µg/mL", "value": 64}, {"measurement": "MIC", "setting": "VISA; VISA 95, in µg/mL", "value": 64}, {"measurement": "MIC", "setting": "VISA; VISA 96, in µg/mL", "value": 64}, {"measurement": "MIC", "setting": "E. coli; E. coli 69716, in µg/mL", "value": 2}, {"measurement": "MIC", "setting": "E. coli; E. coli 69716, listed as Piperacillin-Tazobactam, in µg/mL", "value": "4 and 2"}, {"measurement": "MIC", "setting": "E. coli; E. coli 70752", "value": "4/4"}, {"measurement": "MIC", "setting": "E. coli; E. coli 70752, in µg/mL", "value": 8}]}
